In patent publication US20260207760A1, “COMBINATIONS OF CD33 ANTIBODY DRUG CONJUGATE WITH CHEMOTHERAPEUTIC AGENTS” (Glykos Biomedical Oy, priority 2022, published 2026):
Several values for one entry are separate records, joined by “and”; a condition that tells them apart may be missing. Equal values may be shown once. Where a name gives a salt, the structure may show the parent alone. Read-outs that look alike come from different tables or passages of the source.

Assays:
[1] = test system: HL-60 cells; test: Toxicity assay of chemotherapeutic agents, HL-60 cells (PrestoBlue viability); type: cell-based, human
Description: HL-60 cells (ATCC®, cat. no. CCL-240™), derived from human promyelocytic leukemia, were cultured in Iscove's Modified Dulbecco's Medium (Gibco, Life Technologies) supplemented with 20% heat inactivated FBS (Gibco, Life Technologies).
For toxicity assay, HL-60 cells were seeded for 7500 cells/well of 96-well plate. The chemotherapeutic agents were added as 2-fold stock solutions and incubated with cells for 5 days.
All other compounds were tested at concentrations 0.1, 1, 10, 100, 1000, and 10 000 nM. […] The percentage of viable cells was calculated by dividing the sample absorbance value with untreated cell control value and multiplying by 100%.
All compounds were tested at concentrations of 0.1-10 000 nM.
IC50 values were determined after average % and standard deviations were transferred to GraphPad Prism 9.1.2. Dose-response curves were generated and the IC50% values of the samples were obtained by non-linear regression analysis (Inhibitor vs. response, variable slope (four parameters)) using the software.

[2] = test system: KG-1 cells; test: Toxicity of chemotherapeutic agents, KG-1 cells (PrestoBlue viability); type: cell-based; conditions: 4 days
Description: Toxicity of chemotherapeutic agents was tested with high CD33-positive KG-1 cell line (DSMZ-German Collection of Microorganisms and Cell Cultures; Cat. No. ACC 14). KG-1 cells were seeded to non-treated 96-well plate 15000 cells/well and diluted compounds were added to cells in duplicates. Dilution series (1:10) of compounds were prepared starting from 20 μM to 0.2 nM and when added to cells they diluted 2× more. Cell control was untreated cells in culture medium.
Cells with chemotherapeutic agents were cultured for 4 days and then the viability was measured with PrestoBlue cell viability reagent according to the manufacturer's (Life Technologies) instructions. Results were calculated from 5-hour Prestoblue reaction and the percentage of viable cells was calculated by dividing the sample absorbance value with cell control value.

[3] = test system: MOLM-13 cells; test: Toxicity assay of chemotherapeutic agents, MOLM-13 cells (PrestoBlue viability); type: cell-based, human; conditions: 4 days
Description: For toxicity assay, MOLM-13 cells were seeded for 10 000 cells/well of 96-well plate. The tested chemotherapeutic agents were added as 2-fold stock solutions and incubated in duplicate with cells for 4 days. The compounds were tested at concentrations 0.1, 1, 10, 100, 1000, and 10 000 nM. […] After 4 days incubation, the viability of the cells was determined with PrestoBlue Cell Viability Reagent (Life Technologies) according to the manufacturer's instructions. The percentage of viable cells was calculated by dividing the sample absorbance value with untreated cell control value and multiplying by 100%.

[4] = test system: patient blasts; test: Ex vivo AML patient samples, viable blasts by flow cytometry, 5-day assay; type: cell-based, human; conditions: five days; for activity against blasts: AML patient samples; for IC50: six AML patient samples, read-out: median IC50 (absolute) against blasts
Description: (§1) AML cells were rapidly thawed in a 37° C. water bath and treated with Denarase (250 U/μl). The cells were cultured in SFEM II medium ([…] Technologies) supplemented with 20 ng/ml SCF, 20 ng/ml TPO, and 20 ng/ml FLT3-L. The compounds were added the same day to 96-well conical bottom plates at seven different concentrations using an acoustic liquid handling device (Echo 550, Labcyte Inc), on top of 10 μl of culturing medium/well. A total of 100,000 cells were seeded per well in a volume of 100 μl. […] All antibodies were obtained from BD biosciences and used at a dilution of 1:100, except CD3 in 1:50. Following a 20-minute incubation with the antibodies, the cells were centrifuged, and 25 μl of Annexin-V and 7-AAD mixture, both diluted 1:50 in Annexin V binding buffer, were added to each well. After a 10-minute incubation, the total number of viable blasts (CD34 or CD117), lymphocytes (CD3) and CD33-positive cells in each well was counted using Forecyte software (Sartorius) and normalized to DMSO control containing wells.
(§2) The AML samples were exposed to LNAuM, lintuzumab, MMAU, or gemtuzumab ozogamicin (GO; Mylotarg, Pfizer) for five days, after which remaining viable blast and lymphocytes were quantified using flow cytometry. […] Subsequently, we assessed toxicity against lymphocytes (CD33-negative) in the same samples.

[5] = test system: patient lymphocytes; test: Ex vivo AML patient samples, viable lymphocytes by flow cytometry, 5-day assay; conditions: CD33-negative lymphocytes in AML patient samples, five days
Description: as §1, §2

[6] = test system: MOLM-13 cells; test: MOLM-13 cell mouse xenograft efficacy study; conditions: for toxicity in mice: clinical signs, general behavior, macroscopic changes in major organs; for Average tumor size / Tumor size of individual mice / TGI (average tumor size compared to Vehicle): day 15 after tumor inoculation, combination of the two; for Average tumor size / Tumor size of individual mice: LNAuM 0.3 mg/kg single dose i.v., venetoclax 100 mg/kg p.o. daily; for TGI (average tumor size compared to Vehicle): LNAuM 0.3 mg/kg single dose
[7] = Homo sapiens, 120 h, HL-60 cells, 5 days incubation, read-out: IC50

Compound: Nc1ccn([C@@H]2O[C@H](CO)[C@@H](O)[C@@H]2O)c(=O)n1 [Cytarabine]
- IC50 [1, 7]: 298 nM
- IC50 ([2]; Homo sapiens, 96 h): 230 nM
- IC50 ([3]; Homo sapiens, 96 h): 112 nM

Compound: COc1cccc2c1C(=O)c1c(O)c3c(c(O)c1C2=O)C[C@@](O)(C(C)=O)C[C@@H]3O[C@H]1C[C@H](N)[C@H](O)[C@H](C)O1 [Daunorubicin-HCl]
- IC50 ([1]; Homo sapiens, HL-60, 120 h): 15 nM
- IC50 ([2]; Homo sapiens, 96 h): 55 nM
- IC50 ([3]; Homo sapiens, 96 h): 13 nM

Compound: CCC(C)C(C(CC(=O)N1CCCC1C(OC)C(C)C(=O)NC(C)C(OC1OC(C(=O)O)C(O)C(O)C1O)c1ccccc1)OC)N(C)C(=O)C(NC(=O)C(NC)C(C)C)C(C)C [MMAU, monomethylauristatin E β-D-glucuronide]
- activity against blasts [4]: modest or no activity
- cytotoxic activity against lymphocytes [5]: did not exhibit cytotoxic activity

Compound: CO[C@@H]1[C@H](N(C)C(=O)c2ccccc2)C[C@H]2O[C@]1(C)n1c3ccccc3c3c4c(c5c6ccccc6n2c5c31)C(=O)NC4 [Midostaurin]
- IC50 ([3]; Homo sapiens, 96 h): 14 nM

Compound: CC1(C)CCC(CN2CCN(c3ccc(C(=O)NS(=O)(=O)c4ccc(NCC5CCOCC5)c([N+](=O)[O-])c4)c(Oc4cnc5[nH]ccc5c4)c3)CC2)=C(c2ccc(Cl)cc2)C1 [Venetoclax]
- IC50 [1, 7]: 112 nM
- IC50 ([2]; Homo sapiens, 96 h): 2300 nM
- IC50 ([3]; Homo sapiens, 96 h): 24 nM
- toxicity in mice [6]: no toxicity
- Average tumor size [6]: 194 mm^3
- Tumor size of individual mice [6]: 134.946 mm^3 and 184.96 mm^3 and 249.64 mm^3 and 246.895 mm^3 and 122.793 mm^3 and 226.1475 mm^3
- TGI (average tumor size compared to Vehicle) ([6]; venetoclax 100 mg/kg): 0.45

Compound: Gilteritinib hemifumarate
- IC50 ([1]; read-out: IC50): 425 nM
- IC50 [2]: 1700 nM
- IC50 [3]: 24 nM

Compound: LNAuM: antibody-drug-conjugate (ADC) comprising the lintuzumab antibody, conjugated to MMAU, via a cleavable linker
- IC50 [4]: 16 nM
- cytotoxic activity against lymphocytes [5]: did not exhibit cytotoxic activity
- tumors disappeared and did not regrow during the whole study ([6]; LNAuM single dose of 3 mg/kg): 6/6
- tumor growth versus control group ([6]; all doses (LNAuM 0.1-3 mg/kg single dose; venetoclax 100 mg/kg, 10 daily doses)): inhibited tumor growth
- toxicity in mice [6]: no toxicity
- Average tumor size [6]: 201 mm^3
- Tumor size of individual mice [6]: 204.723 mm^3 and 229.992 mm^3 and 239.704 mm^3 and 153.6 mm^3 and 106.624 mm^3 and 271.472 mm^3
- TGI (average tumor size compared to Vehicle) ([6]; venetoclax 100 mg/kg): 0.46
- outcome at study end ([6]; day 54 after tumor inoculation, venetoclax 100 mg/kg, LNAuM 1 mg/kg, combination): two animals were sacrificed due to tumor growth, and in the rest of the animals there was a palpable tumor

Compound: gemtuzumab ozogamicin [GO]
- IC50 [4]: 0.3 nM
- cytotoxic activity against lymphocytes [5]: significant lymphocyte toxicity
- IC50 ([5]; read-out: median IC50 against lymphocytes): 9 nM

Compound: lintuzumab: anti-CD33 antibody comprising the light chain of SEQ ID NO:1 and the heavy chain of SEQ ID NO:2
- activity against blasts [4]: modest or no activity
- cytotoxic activity against lymphocytes [5]: did not exhibit cytotoxic activity
- tumor growth inhibition ([6]; lintuzumab naked antibody 10 mg/kg single dose, non-binding IgG1 ADC control 3 mg/kg single dose): only modest tumor growth inhibition
